Experimental data: PMC2912373, “Low-Density Lipoprotein Receptor-Related Protein 1 (LRP1) Mediates Neuronal Aβ42 Uptake and Lysosomal Trafficking” (PLoS ONE, 2010)

Tested on: N2a-pcDNA3 cells
Assay: Binding/endocytosis of FAM-Aβ42, confocal microscopy
Type: cell-based, mouse
Conditions: 5 µM bound 1 h at 4°C, 37°C for 8 h
Source text: To test whether the endocytic activity of LRP1 mediates the uptake of Aβ42 and its accumulation within neurons, we analyzed the uptake of fluorescently labeled Aβ42 in control N2a cells and in N2a cells that overexpress a LRP1 minireceptor, mLRP4. This minireceptor contains the fourth ligand-binding domain of LRP1 and is capable of binding several LRP1 ligands with endocytic properties identical to the full-length LRP1 [35]. We generated stable N2a-mLRP4 and N2a-pcDNA3 cell lines and characterized them for total mLRP4 expression levels by Western blot and FACS (Fig. 1). […] To determine if mLRP4 reached the plasma membrane after synthesis, we analyzed cell surface levels of mLRP4 by FACS in non-permeabilized cells. […] To quantify the amount of internalized RAP, we performed FACS analysis of similarly treated cultures. […] Cells were then warmed to 37°C for different periods of time to allow ligand internalization, and analyzed by confocal microscopy as described in the Experimental Procedures section. […]
Figure 1 LRP1 minireceptor increases the uptake of Aβ42 in N2a-mLRP4 cells. A, cell lysates from N2a cells stably expressing LRP1 minireceptor (N2a-mLRP4) or empty pcDNA3 vector (N2a-pcDNA3) were analyzed by 7.5% SDS-PAGE and Western blotted with anti-HA or anti-LRP1 antibodies. […]

FAM-Aβ42: FAM-Aβ42 peptide (23526) from Anaspec; amyloid-β 42 with carboxyfluorescein at the N-terminal region
Aβ42 accumulated after 8 h of warming: small amount
